Source: patent publication US20250221960A1, “COMPOSITIONS AND METHODS FOR THE TREATMENT OF DEPRESSION” (Janssen Pharmaceuticals, Inc., priority 2022, published 2025)

Legend:
Type in all cases: in vivo, human
[1] = system: subjects with MDD; test: SHAPS total score (anhedonia), Example 1; settings: for SHAPS Total Score Change from Baseline LSMean (SE), MMRM / SHAPS Total Score Effect Size vs placebo / SHAPS Total Score LSMean Difference (SE) Treatment - Placebo, MMRM: 10 mg
Source text: To assess a potential effect on anhedonia, an anhedonia scale may be used. For example, the Snaith-Hamilton Pleasure Scale (SHAPS) analysis is a validated scale for the measurement of anhedonia. The SHAPS is a subject completed scale in which subjects score whether or not they experience pleasure in performing a list of activities or experiences. The SHAPS is a self-reported 14-item instrument, developed for the assessment of hedonic capacity. Subjects score whether they experience pleasure in performing a list of activities or experiences. Subjects can rate the answers as 1-4 where 1 indicates “Definitely agree”, 2 indicates “Agree”, 3 indicates “Disagree” and 4 indicates “Definitely disagree”. The subject's item responses are summed to provide a total score ranging from 14 to 56. A higher total SHAPS score indicates higher levels of current anhedonia. Physician/clinical judgment can be used to assess anhedonia separately or in conjunction with an anhedonia scale.
In some embodiments, the patient has anhedonia. In some embodiments, the patient has moderate anhedonia. In other embodiments, the patient has severe anhedonia. An assessment of moderate or severe anhedonia is typically determined physician/clinical judgment and/or by one or more tests that provide insight into whether a patient has anhedonia. For example, the severity of the anhedonia may be determined using the SHAPS method. In some embodiments, a patient with moderate or severe anhedonia is considered to have a high level of anhedonia. For example, a patient with a SHAPS score of 38 or greater is considered to have moderate to severe anhedonia that can be considered a high level of anhedonia. In some embodiments, a high level of anhedonia is reflected by a SHAPS score of at least about 40, about 42, about 44, about 46, about 48, about 50, about 52, about 54, about 56, about 58, or higher. A patient with mild or no anhedonia would be considered to have a low level of anhedonia that is assessed by physician/clinical judgment and/or one or more tests. For example, a patient with a SHAPS score of less than 38 is considered to have low anhedonia. In certain embodiments, a patient with mild anhedonia may have a SHAPS score of 20 to less than 38, for example, a SHAPS score of 20 to about 36, about 22 to about 36, about 24 to about 36, about 26 to about 36, about 26 to about 34, about 26 to about 32, about 26 to about 30, about 26 to about 28, about 28 to about 36, about 28 to about 36, about 30, to about 36, about 32 to about 36, about 34 to about 36, about 20 to about 34, about 22 to about 34, about 24 to about 34, about 26 to about 32, about 26 to about 30, about 26 to about 28, about 28 to about 36, about 28 to about 34, about 28 to about 32, about 28 to about 30, about 30 to about 36, about 30 to about 34, about 30 to about 32, about 32 to about 36, about 32 to about 34, or about 34 to about 36. Typically, a SHAPS score of less than 20 can be considered to correspond to normal hedonic functioning, and for purposes of this disclosure, would fall into the low category of anhedonia, e.g., a SHAPS score of less than 38.
iii. To investigate the effect of aticaprant versus placebo on depression related anhedonia as assessed by the SHAPS.
The treatment phase consisted of 3 periods. […] There were 11 scheduled visits, including screening.

[2] = system: subjects with MDD; test: SIGH-A score (anxiety), Example 1; settings: Treatment Week 6; 10 mg; 59 subjects analyzed
Source text: (§1) v. To investigate the effect of aticaprant on symptoms of anxiety using the HAM-A and on core symptoms of anxiety using the HAM-A6 subscale.
(§2) • (i) Depression: Montgomery-Åsberg Depression Rating Scale (MADRS), Clinical Global Impression-Severity (CGI-S), Symptoms of Major Depressive Disorder Scale (SMDDS), and Self-assessment of treatment experience (SATE) • (ii) Anhedonia: Snaith-Hamilton Pleasure Scale (SHAPS) • (iii) Anxiety: Structured Interview Guide for the Hamilton Anxiety scale (SIGH-A) and HAM-A6 • (iv) Effects on Cognition: The Cognitive and Physical Functioning Questionnaire (CPFQ) • (v) Safety assessments

[3] = system: subjects with MDD; test: HAM-A6 total score (anxiety), Example 1; settings: Treatment Week 6
Source text: as §1, §2

SMILES: Cc1cc(C)cc(C2CCCN2Cc2ccc(Oc3ccc(C(N)=O)cc3F)cc2)c1 (stereo not drawn) [aticaprant, 3-fluoro-4-4-2-(3,5-dimethylphenyl) pyrrolidin-1-yl-methylphenoxybenzamide]
- Frequency of Subjects: High Level of Anhedonia (SHAPS Total Score >= 38) ([1]; Treatment Week 6, eITT, N = 59): 8 (13.56%)
- Frequency of Subjects: Low Level of Anhedonia (20 <= SHAPS Total Score < 38) ([1]; Treatment Week 6, eITT, N = 59): 48 (81.36%)
- Frequency of Subjects: No Anhedonia (SHAPS Total Score < 20) ([1]; Treatment Week 6, eITT, N = 59): 3 (5.08%)
- Frequency of Subjects: High Level of Anhedonia (SHAPS Total Score >= 38) ([1]; Treatment Week 6, fITT, N = 77): 8 (10.39%)
- Frequency of Subjects: Low Level of Anhedonia (20 <= SHAPS Total Score < 38) ([1]; Treatment Week 6, fITT, N = 77): 62 (80.52%)
- Frequency of Subjects: No Anhedonia (SHAPS Total Score < 20) ([1]; Treatment Week 6, fITT, N = 77): 7 (9.09%)
- SHAPS Total Score Change from Baseline LSMean (SE), MMRM ([1]; eITT, Treatment Week 1): −1.7
- SHAPS Total Score Effect Size vs placebo ([1]; eITT, Treatment Week 1): −0.15
- SHAPS Total Score LSMean Difference (SE) Treatment - Placebo, MMRM ([1]; eITT, Treatment Week 1): −0.8
- SHAPS Total Score Change from Baseline LSMean (SE), MMRM ([1]; eITT, Treatment Week 3): −3.2
- SHAPS Total Score Effect Size vs placebo ([1]; eITT, Treatment Week 3): −0.25
- SHAPS Total Score LSMean Difference (SE) Treatment - Placebo, MMRM ([1]; eITT, Treatment Week 3): −1.4
- SHAPS Total Score Change from Baseline LSMean (SE), MMRM ([1]; eITT, Treatment Week 4): −4.3
- SHAPS Total Score Effect Size vs placebo ([1]; eITT, Treatment Week 4): −0.23
- SHAPS Total Score LSMean Difference (SE) Treatment - Placebo, MMRM ([1]; eITT, Treatment Week 4): −1.4
- SHAPS Total Score Change from Baseline LSMean (SE), MMRM ([1]; eITT, Treatment Week 5): −4.0
- SHAPS Total Score Effect Size vs placebo ([1]; eITT, Treatment Week 5): −0.08
- SHAPS Total Score LSMean Difference (SE) Treatment - Placebo, MMRM ([1]; eITT, Treatment Week 5): −0.5
- SHAPS Total Score Change from Baseline LSMean (SE), MMRM ([1]; eITT, Treatment Week 6): −4.4
- SHAPS Total Score LSMean Difference (SE) Treatment - Placebo, MMRM ([1]; eITT, Treatment Week 6): −0.7
- SHAPS Total Score Change from Baseline LSMean (SE), MMRM ([1]; fITT, Treatment Week 1): −1.9
- SHAPS Total Score Effect Size vs placebo ([1]; fITT, Treatment Week 1): −0.15
- SHAPS Total Score LSMean Difference (SE) Treatment - Placebo, MMRM ([1]; fITT, Treatment Week 1): −1.0
- SHAPS Total Score Change from Baseline LSMean (SE), MMRM ([1]; fITT, Treatment Week 3): −3.1
- SHAPS Total Score Effect Size vs placebo ([1]; fITT, Treatment Week 3): −0.20
- SHAPS Total Score LSMean Difference (SE) Treatment - Placebo, MMRM ([1]; fITT, Treatment Week 3): −1.4
- SHAPS Total Score Change from Baseline LSMean (SE), MMRM ([1]; fITT, Treatment Week 4): −4.1
- SHAPS Total Score Effect Size vs placebo ([1]; fITT, Treatment Week 4): −0.23
- SHAPS Total Score LSMean Difference (SE) Treatment - Placebo, MMRM ([1]; fITT, Treatment Week 4): −1.6
- SHAPS Total Score Change from Baseline LSMean (SE), MMRM ([1]; fITT, Treatment Week 5): −4.1
- SHAPS Total Score Effect Size vs placebo ([1]; fITT, Treatment Week 5): −0.09
- SHAPS Total Score LSMean Difference (SE) Treatment - Placebo, MMRM ([1]; fITT, Treatment Week 5): −0.8
- SHAPS Total Score Change from Baseline LSMean (SE), MMRM ([1]; fITT, Treatment Week 6): −4.5
- SHAPS Total Score LSMean Difference (SE) Treatment - Placebo, MMRM ([1]; fITT, Treatment Week 6): −0.8
- Change from Treatment Baseline in Structured Interview Guide for the SIGH-A Score, Arithmetic Mean (SD) [2]: −5.85 ± 5.369 scores on a scale
- improvement in HAMA6 score vs. placebo [3]: greater improvement
